Results: publication PMC4515429, “Anti-Biofilm and Immunomodulatory Activities of Peptides That Inhibit Biofilms Formed by Pathogens Isolated from Cystic Fibrosis Patients” (Antibiotics, 2014)
Where “and” joins values, the source holds several entries; their conditions need not be identical. Equal entries are not always repeated. Where no end group is shown, it is not given here.

Columns and labels:
[1] = system: P. aeruginosa 3330 (Classic); conditions: polypropylene 96-well plate, BM2 glucose, 22 h, 37 °C, crystal violet, absorbance 595, at least two independent experiments
Description: (§1) To assess the biofilm-forming ability of the different clinical isolates, dilutions (1/100) of overnight cultures were incubated in 96-well polypropylene plates using BM2 glucose medium, as previously described.
(§2) Biofilm formation was initially analyzed using a static abiotic solid surface assay as described elsewhere. Dilutions (1/100) of overnight cultures were incubated in BM2 glucose medium (62 mM potassium phosphate buffer (pH 7), 7 mM (NH4)2SO4, 2 mM MgSO4, 10 μM FeSO4, 0.4% (wt/vol) glucose, 0.5% (wt/vol) Casamino Acids) in polypropylene microtiter plates (Fisher Scientific, Waltham, MA, USA) in the presence of the different peptides for 22 h at 37 °C. Planktonic cells were removed and biofilm cells adhering to the side of the tubes were stained with crystal violet, extracted into ethanol, and the optical density at 595 nm (OD595) measured using a microtiter plate reader (Bio-Tek Instruments Inc., Winooski, VT, USA). Peptides were added at time zero (prior to adding the diluted, overnight cultures) at various concentrations, and the decrease in biofilm formation was recorded at 22 h for P. aeruginosa, Burkholderia and Methicillin-resistant Staphylococcus aureus isolates.

[2] = system: P. aeruginosa 3195 (Classic); conditions: polypropylene 96-well plate, BM2 glucose, 22 h, 37 °C, crystal violet, absorbance 595, at least two independent experiments
Description: as §1, §2

[3] = system: B. multivorans D2661 (Genomovar II); conditions: polypropylene 96-well plate, BM2 glucose, 22 h, 37 °C, crystal violet, absorbance 595, at least two independent experiments
Description: as §1, §2

[4] = system: B. cenocepacia C5424 (IIIa); conditions: polypropylene 96-well plate, BM2 glucose, 22 h, 37 °C, crystal violet, absorbance 595, at least two independent experiments
Description: as §1, §2

[5] = system: P. aeruginosa 7633 (Entire); conditions: polypropylene 96-well plate, BM2 glucose, 22 h, 37 °C, crystal violet, absorbance 595, at least two independent experiments
Description: as §1, §2

[6] = system: P. aeruginosa 1172 (Classic); conditions: polypropylene 96-well plate, BM2 glucose, 22 h, 37 °C, crystal violet, absorbance 595, at least two independent experiments
Description: as §1, §2

[7] = system: B. ambifaria CEP0996 (VII); conditions: polypropylene 96-well plate, BM2 glucose, 22 h, 37 °C, crystal violet, absorbance 595, at least two independent experiments
Description: as §1, §2

[8] = system: B. cenocepacia CEP0055 (IIIb); conditions: polypropylene 96-well plate, BM2 glucose, 22 h, 37 °C, crystal violet, absorbance 595, at least two independent experiments
Description: as §1, §2

P. aeruginosa PA01 [9] = conditions: polypropylene 96-well plate, BM2 glucose, 22 h, 37 °C, crystal violet, absorbance 595, at least two independent experiments
Description: as §1, §2

B. stabilis C6061 (IV) [10] = conditions: polypropylene 96-well plate, BM2 glucose, 22 h, 37 °C, crystal violet, absorbance 595, at least two independent experiments
Description: as §1, §2

[11] = system: B. cenocepacia CEP509 (IIIb); conditions: polypropylene 96-well plate, BM2 glucose, 22 h, 37 °C, crystal violet, absorbance 595, at least two independent experiments
Description: as §1, §2

[12] = system: P. aeruginosa 2631 (Classic); conditions: polypropylene 96-well plate, BM2 glucose, 22 h, 37 °C, crystal violet, absorbance 595, at least two independent experiments
Description: as §1, §2

B. dolosa CEP0021 (VI) [13] = conditions: polypropylene 96-well plate, BM2 glucose, 22 h, 37 °C, crystal violet, absorbance 595, at least two independent experiments
Description: as §1, §2

[14] = system: P. aeruginosa 2639 (Mucoid); conditions: polypropylene 96-well plate, BM2 glucose, 22 h, 37 °C, crystal violet, absorbance 595, at least two independent experiments
Description: as §1, §2

[15] = system: B. cenocepacia 4813 (IIIa); conditions: polypropylene 96-well plate, BM2 glucose, 22 h, 37 °C, crystal violet, absorbance 595, at least two independent experiments
Description: as §1, §2

[16] = system: P. aeruginosa 7632 (Classic); conditions: polypropylene 96-well plate, BM2 glucose, 22 h, 37 °C, crystal violet, absorbance 595, at least two independent experiments
Description: as §1, §2

P. aeruginosa PA14 [17] = conditions: polypropylene 96-well plate, BM2 glucose, 22 h, 37 °C, crystal violet, absorbance 595, at least two independent experiments
Description: as §1, §2

[18] = system: P. aeruginosa 2955 (Dwarf); conditions: polypropylene 96-well plate, BM2 glucose, 22 h, 37 °C, crystal violet, absorbance 595, at least two independent experiments
Description: as §1, §2

[19] = system: P. aeruginosa 3330 (Classic); conditions: planktonic cells; broth microdilution, BHI, 5 × 10^5 CFU/mL, 37 °C, 18 h; performed at least three times
Description: (§3) In addition to the wild type lab isolates Pseudomonas aeruginosa strains PAO1 and PA14, a variety of cystic fibrosis clinical isolates of P. aeruginosa and Burkholderia cepacia complex strains were utilized (Table 1). Planktonic cells from each of the P. aeruginosa and B. cepacia strains were grown in BM2 glucose or cation-adjusted Mueller-Hinton. The minimal inhibitory concentration (MIC) for peptides in brain-heart infusion (BHI) was assessed by the broth microdilution method with minor modifications for cationic peptides. […] MIC assays were performed in sterile 96-well polypropylene microtiter plates. […] The plates were incubated at 37 °C for 18 h.

[20] = system: P. aeruginosa 3195 (Classic); conditions: planktonic cells; broth microdilution, BHI, 5 × 10^5 CFU/mL, 37 °C, 18 h; performed at least three times
Description: as §3

[21] = system: B. multivorans D2661 (Genomovar II); conditions: planktonic cells; broth microdilution, BHI, 5 × 10^5 CFU/mL, 37 °C, 18 h; performed at least three times
Description: as §3

[22] = system: B. cenocepacia C5424 (IIIa); conditions: planktonic cells; broth microdilution, BHI, 5 × 10^5 CFU/mL, 37 °C, 18 h; performed at least three times
Description: as §3

[23] = system: P. aeruginosa C4278 (Mucoid); conditions: planktonic cells; broth microdilution, BHI, 5 × 10^5 CFU/mL, 37 °C, 18 h; performed at least three times
Description: as §3

[24] = system: P. aeruginosa 7633 (Entire); conditions: planktonic cells; broth microdilution, BHI, 5 × 10^5 CFU/mL, 37 °C, 18 h; performed at least three times
Description: as §3

[25] = system: P. aeruginosa C4276 (Classic); conditions: planktonic cells; broth microdilution, BHI, 5 × 10^5 CFU/mL, 37 °C, 18 h; performed at least three times
Description: as §3

[26] = system: P. aeruginosa 1172 (Classic); conditions: planktonic cells; broth microdilution, BHI, 5 × 10^5 CFU/mL, 37 °C, 18 h; performed at least three times
Description: as §3

[27] = system: B. ambifaria CEP0996 (VII); conditions: planktonic cells; broth microdilution, BHI, 5 × 10^5 CFU/mL, 37 °C, 18 h; performed at least three times
Description: as §3

[28] = system: B. cenocepacia CEP0055 (IIIb); conditions: planktonic cells; broth microdilution, BHI, 5 × 10^5 CFU/mL, 37 °C, 18 h; performed at least three times
Description: as §3

P. aeruginosa PA01 [29] = conditions: planktonic cells; broth microdilution, BHI, 5 × 10^5 CFU/mL, 37 °C, 18 h; performed at least three times
Description: as §3

[30] = system: P. aeruginosa 4608 (Mucoid); conditions: planktonic cells; broth microdilution, BHI, 5 × 10^5 CFU/mL, 37 °C, 18 h; performed at least three times
Description: as §3

B. stabilis C6061 (IV) [31] = conditions: planktonic cells; broth microdilution, BHI, 5 × 10^5 CFU/mL, 37 °C, 18 h; performed at least three times
Description: as §3

[32] = system: B. cenocepacia CEP509 (IIIb); conditions: planktonic cells; broth microdilution, BHI, 5 × 10^5 CFU/mL, 37 °C, 18 h; performed at least three times
Description: as §3

[33] = system: P. aeruginosa 2631 (Classic); conditions: planktonic cells; broth microdilution, BHI, 5 × 10^5 CFU/mL, 37 °C, 18 h; performed at least three times
Description: as §3

[34] = system: P. aeruginosa 4020 (Classic); conditions: planktonic cells; broth microdilution, BHI, 5 × 10^5 CFU/mL, 37 °C, 18 h; performed at least three times
Description: as §3

B. dolosa CEP0021 (VI) [35] = conditions: planktonic cells; broth microdilution, BHI, 5 × 10^5 CFU/mL, 37 °C, 18 h; performed at least three times
Description: as §3

[36] = system: P. aeruginosa 2639 (Mucoid); conditions: planktonic cells; broth microdilution, BHI, 5 × 10^5 CFU/mL, 37 °C, 18 h; performed at least three times
Description: as §3

[37] = system: B. cenocepacia 4813 (IIIa); conditions: planktonic cells; broth microdilution, BHI, 5 × 10^5 CFU/mL, 37 °C, 18 h; performed at least three times
Description: as §3

[38] = system: P. aeruginosa 7632 (Classic); conditions: planktonic cells; broth microdilution, BHI, 5 × 10^5 CFU/mL, 37 °C, 18 h; performed at least three times
Description: as §3

[39] = system: P. aeruginosa C2773 (Classic); conditions: planktonic cells; broth microdilution, BHI, 5 × 10^5 CFU/mL, 37 °C, 18 h; performed at least three times
Description: as §3

P. aeruginosa PA14 [40] = conditions: planktonic cells; broth microdilution, BHI, 5 × 10^5 CFU/mL, 37 °C, 18 h; performed at least three times
Description: as §3

[41] = system: P. aeruginosa 2955 (Dwarf); conditions: planktonic cells; broth microdilution, BHI, 5 × 10^5 CFU/mL, 37 °C, 18 h; performed at least three times
Description: as §3

## VRLIVAVRIWRR-NH2 [Peptide 1018]
[1]
  Inhibition by 10 µg/mL 1018 (biofilm formation): 33%
[2]
  Inhibition by 10 µg/mL 1018 (biofilm formation): 37%
[3]
  Inhibition by 10 µg/mL 1018 (biofilm formation): 75%
[4]
  Inhibition by 10 µg/mL 1018 (biofilm formation): 59%
[5]
  Inhibition by 10 µg/mL 1018 (biofilm formation): 49%
[6]
  Inhibition by 10 µg/mL 1018 (biofilm formation): 37%
[7]
  Inhibition by 10 µg/mL 1018 (biofilm formation): 62%
[8]
  Inhibition by 10 µg/mL 1018 (biofilm formation): 58%
P. aeruginosa PA01 [9]
  Inhibition by 10 µg/mL 1018 (biofilm formation): ~ 50% and 51%
B. stabilis C6061 (IV) [10]
  Inhibition by 10 µg/mL 1018 (biofilm formation): 53%
[11]
  Inhibition by 10 µg/mL 1018 (biofilm formation): 61%
[12]
  Inhibition by 10 µg/mL 1018 (biofilm formation): 44%
B. dolosa CEP0021 (VI) [13]
  Inhibition by 10 µg/mL 1018 (biofilm formation): 55%
[14]
  Inhibition by 10 µg/mL 1018 (biofilm formation): 44%
[15]
  Inhibition by 10 µg/mL 1018 (biofilm formation): 52%
[16]
  Inhibition by 10 µg/mL 1018 (biofilm formation): 19%
P. aeruginosa PA14 [17]
  Inhibition by 10 µg/mL 1018 (biofilm formation): ~ 50% and 49%
[18]
  Inhibition by 10 µg/mL 1018 (biofilm formation): 41%
[19]
  MIC: 16 µg/mL
[20]
  MIC: 16 µg/mL
[21]
  MIC: >512 µg/mL
[22]
  MIC: 128 µg/mL
[23]
  MIC: 16 µg/mL
[24]
  MIC: 16 µg/mL
[25]
  MIC: 32 µg/mL
[26]
  MIC: 16 µg/mL
[27]
  MIC: 64 µg/mL
[28]
  MIC: 128 µg/mL
P. aeruginosa PA01 [29]
  MIC: 16 µg/mL
[30]
  MIC: 32 µg/mL
B. stabilis C6061 (IV) [31]
  MIC: 64 µg/mL
[32]
  MIC: >256 µg/mL
[33]
  MIC: 32 µg/mL
[34]
  MIC: 16 µg/mL
B. dolosa CEP0021 (VI) [35]
  MIC: >256 µg/mL
[36]
  MIC: 32 µg/mL
[37]
  MIC: >256 µg/mL
[38]
  MIC: 16 µg/mL
[39]
  MIC: 16 µg/mL
P. aeruginosa PA14 [40]
  MIC: 16 µg/mL
[41]
  MIC: 50 µg/mL
